Experimental data: patent US9895352B2, “Indolinone compounds and uses thereof” (Oncternal Therapeutics, Inc., priority 2014, dated 2018)
Where two headings read alike, the source gives them in different places.

Columns and labels:
[1] = system: SKES cells (Ewing Sarcoma cell line); assay: CCK-8 tetrazolium tumor cell growth inhibition, SKES; format: cell-based; settings: Homo sapiens
[2] = Half-life in mouse hepatocytes; format: in vitro ADME; settings: read-out: Half life of cmpds
Procedure: (§1) In another study, metabolism of compounds in hepatocytes from various species was examined. Hepatocytes were contacted with a compound, and the half-life of the compound was determined.

[3] = Half-life in rat hepatocytes; format: in vitro ADME; settings: read-out: Half life of cmpds
Procedure: as §1

[4] = Half-life in dog hepatocytes; format: in vitro ADME; settings: read-out: Half life of cmpds
Procedure: as §1

[5] = Half-life in human hepatocytes; format: in vitro ADME; settings: read-out: Half life of cmpds
Procedure: as §1

[6] = Pharmacokinetics after IV and oral administration; format: in vivo; settings: BALB/c mice or Sprague Dawley rats; for Cmax / half-life / Tmax / bioavailability: plasma; for Tmax: read-out: Tmax
Procedure: Certain pharmacokinetics parameters were determined for certain compounds in vivo for intravenous and oral administration. Briefly, compounds were formulated and administered using IV bolus, continuous IV infusion or oral administration. Blood was collected at multiple time points over 24 hours and processed into plasma. Plasma was analyses for parent using LC/MS/MS. Certain parameters for certain compounds were obtained in duplicate.

[7] = human liver microsome, no cofactor, 60 min
[8] = in vitro; settings: human liver microsomes
[9] = in vitro; settings: rat, liver microsomes
[10] = in vitro; settings: mouse, liver microsomes
[11] = in vitro; settings: dog, liver microsomes
[12] = iv, 5 mg/kg, 5 mg/kg IV, captisol
[13] = po, 20 mg/kg, 20 mg/kg po, labrasol/tetraglycol 9:1
[14] = po, 20 mg/kg, 20 mg/kg po, labrasol:tetraglycol:water 72:8:20

O=C(CC1(O)C(=O)Nc2c(Cl)ccc(Cl)c21)c1ccc(N2CCCC2)cc1 (single isomer, unassigned) [Cmpd 18, 4,7-Dichloro-3-hydroxy-3-(2-oxo-2-(4-(pyrrolidin-1-yl)phenyl)ethyl)indolin-2-one]
IC50 ([1]; 72 h, SKES cells, 3 days with compound, CCK-8 (TABLE 3)): < 5 µM
IC50 ([1]; SKES, ES, EWS-FLI1 Type 2): < 5 µM
half-life [2]: 60 min
half-life [3]: 18.8 min
half-life [4]: 30.6 min
half-life [5]: 63.6 min
AUC ([6]; 5 mg/kg IV, captisol): 3738 h * (ng/mL)
AUC ([6]; 20 mg/kg po, labrasol/tetraglycol 9:1): 7497 h * (ng/mL)
AUC ([6]; 20 mg/kg po, labrasol:tetraglycol:water 72:8:20): 11029 h * (ng/mL)
Cmax [6, 12]: 14300 ng/mL
half-life [6, 12]: 48 min
Tmax [6, 12]: 0.033 h
Cmax [6, 13]: 3220 ng/mL
bioavailability [6, 13]: 50%
half-life [6, 13]: 84 min
Tmax [6, 13]: 1 h
Cmax [6, 14]: 6420 ng/mL
bioavailability [6, 14]: 74%
half-life [6, 14]: 54 min
Tmax [6, 14]: 1 h
Remaining (NCF = 60 min) [7]: 99.4%
half-life [8]: 23 min
half-life [9]: 1.3 min
half-life [10]: 9.6 min
half-life [11]: 24.1 min
